{
  "source": "patent US8956656B2",
  "about": "“Production of small particles” (Nano Fiber Matrices B.V., priority 2003, dated 2015)",
  "assay_type_in_all_cases": "physicochemical",
  "key": {"Gel test of gelators": {"experiment": "Gel test of gelators", "details": "3 mg/mL in H2O", "experimental": "Gel test: 0.3 mg/mL in H2O or PBS: clear gel; 0.5 mg/mL in H2O/DMSO (19:1): clear gel; 0.6 mg/mL in H2O/EtOH (19:1): clear gel; 25 mg/ml in EtOH: gel.\nGel test: 3 mg/mL in H2O: gel.\nGel test: 1.0 mg/mL in H2O: gel; acetone 7.0 mg/mL: clear gel.\nGel test: 3 mg/mL in H2O: clear gel.\nGel test: 3.0 mg/mL in H2O: gel"}, "[1]": {"experiment": "Stability in time of pyrene particles in a gel (TEM)", "experimental": "To determine the stability in time of pyrene particles in a gel, samples were prepared as in Example 3 and examined with TEM after 7 days, 18 days, 1 month and 2 months. As reference, samples containing only pyrene in DMSO/H2O (100 μL/900 μL) were also prepared. Moreover, to determine the effect of the gelator in solution, i.e. not of the gel, samples containing 4 mg (6.0×10^−3 mmol) of cHexAm(PheAQ)(CH2CH2OCH2CH2OH)2 gelator, 1.22 mg (6.0×10^−3 mmol) of pyrene, 100 μL of DMSO and 900 μL of 1N HCl were prepared. The presence of HCl causes the gelator to dissolve and therefore the sample remains a solution. All samples were kept at room temperature, in the dark. FIG. 1: after 7 days only very few particles, 37-185 nm, are present in the sample; after 18 days more particles, 30-190 nm, can be observed; after 1 month also some crystals, ˜150 nm, can be observed; after 2 months more crystals with sizes ranging from 80 to 200 nm are present. FIG. 2: after 7 days crystals, 0.2-3 μm, can be observed; after 18 days more of such crystals can be observed; after 1 month also larger crystals, 6 μm, can be seen; after 2 months more of such crystals can be observed. FIG. 3: after 7 days, 18 days or 1 month crystals, 0.4 to 9 μm, are present; after 2 months crystals, 2-12 μm, can be observed."}, "[2]": {"experiment": "Optical microscopy of gels and reference solutions", "experimental": "Furosemide, 5 mg, (15×10^−3 mmol), together with 12.5 mg (20×10^−3 mmol) of cHexAm(PheAmBn)(CH2CH2OCH2CH2OH)2 (A), or 12.9 mg (20×10^−3 mmol) of cHexAm(PheAmPhOMe)(CH2CH2OCH2CH2OH)2 (B), or 18.4 mg (20×10^−3 mmol) of cHexAmPheOCH2CH2OCH2CH2OH(C), were dissolved in 50 μL of propylene glycol, 50 μL of PEG400, and 900 μL of water by heating until a clear solution was obtained. As reference, a sample without gelator was prepared (D).\nDanazol, 1 mg, (3×10^−3 mmol), together with 3.9 mg (6×10^−3 mmol) of cHexAm(PheAmAQ)(CH2CH2OCH2CH2OH)2 (A), or 5.4 mg (6×10^−3 mmol) of cHexAmPheOCH2CH2OCH2CH2OH (B), were dissolved in 50 μL of DMSO and 950 μL of distilled water by heating until a clear solution was obtained. As reference, a sample without gelator was prepared (C).\nCyclosporin A, 2.5 mg, (2.1×10^−3 mmol), together with 6.3 mg (10×10^−3 mmol) of cHexAm(PheAmBn)(CH2CH2OCH2CH2OH)2 (A) or 9.2 mg (10×10^−3 mmol) of cHexAmPheOCH2CH2OCH2CH2OH (B), were dissolved in 25 μL of propylene glycol, 25 μL of PEG400, and 450 μL of distilled water by heating until a clear solution was obtained. As reference, a sample without gelator was prepared (C)."}, "[3]": {"experiment": "TEM analysis of particle size in gel or freeze-dried powder", "experimental": "(§1) To a solution containing 4.6 mg (7.6×10^−3 mmol) of cHexAmMetOH gelator and 1.3 mg (3.8×10^−3 mmol) of danazol in 100 μL of DMSO, 900 μL of distilled water were quickly added. […] In a reference sample consisting only of danazol in 100 μL of DMSO and 900 μL of distilled water, rod-shaped danazol particles are 0.5-10 μm wide and 15-53 μm long.\nas §1, with “7” for “4.6”, “cHexAmPheOCH2CH2OCH2CH2OH” for “cHexAmMetOH”\nExample 6 was repeated but with an increased molar ratio of gelator to danazol, of 5:1.\nTo a solution containing 1.96 mg (2.9×10^−3 mmol) of cHexAm(PheAQ)(CH2CH2OCH2CH2OH)2 gelator and 1.0 mg (2.9×10^−3 mmol) of danazol in 50 μL of DMSO, 950 μL of distilled water were quickly added.\nIn a reference sample consisting only of danazol in 100 μL of DMSO to which 900 μL of distilled water was added, rod-shaped danazol particles were formed, which were 0.5-10 μm wide and 15-53 μm long.\nExample 8 was repeated with an increased molar ratio of gelator to danazol (from 1:1 to 2:1).\nFreeze-drying of a gel containing cHexAmPheOCH2CH2OCH2CH2OH and danazol in a 5:1 molar ratio, in DMSO/water mixture (50 μL/950 μL) yielded a dry powder of gelator and danazol.\nFreeze-drying of a gel containing cHexAm(PheAQ)(CH2CH2O CH2CH2OH)2 and danazol in a 5:1 molar ratio, in DMSO/water (50 μL/950 μL) yielded a dry powder of gelator and danazol. […]"}, "[4]": {"details": "gel of cHexAm(PheAQ)(CH2CH2OCH2CH2OH)2, 1:1 molar"}, "[5]": {"details": "gel of cHexAm(PheAQ)(CH2CH2OCH2CH2OH)2, gelator:danazol 2:1"}, "[6]": {"details": "gel of cHexAm(PheAQ)(CH2CH2OCH2CH2OH)2, gelator:danazol 5:1"}, "[7]": {"details": "gel of cHexAmPheOCH2CH2OCH2CH2OH, 2:1 molar"}, "[8]": {"details": "gel of cHexAmPheOCH2CH2OCH2CH2OH, gelator:danazol 5:1"}, "[9]": {"details": "reference sample, only danazol in 100 μL DMSO and 900 μL water"}, "[10]": {"details": "FIG. 6 (b): gel of cHexAmPheOCH2CH2OCH2CH2OH, DMSO/water"}},
  "data": [
    {"smiles": "COc1ccc(NC(=O)[C@H](Cc2ccccc2)NC(=O)[C@@H]2C[C@H](C(=O)O)C[C@H](C(=O)O)C2)cc1", "note": "[cHex(AmPheAmPhOMe)(COOH)2]", "values": [
      {"measurement": "Gel test", "setting": "Gel test of gelators", "result": "clear gel"}
    ]},
    {"smiles": "c1cc2ccc3cccc4ccc(c1)c2c34", "note": "[pyrene]", "values": [
      {"measurement": "size of pyrene particles", "setting": "[1]; gel of cHexAm(PheAQ)(CH2CH2OCH2CH2OH)2, DMSO/H2O, room temperature, dark, after 7 days (FIG. 1)", "result": "37-185 nm"},
      {"measurement": "size of pyrene crystals", "setting": "[1]; gel of cHexAm(PheAQ)(CH2CH2OCH2CH2OH)2, after 1 month (FIG. 1)", "result": "~150", "unit": "nm"},
      {"measurement": "size of pyrene particles", "setting": "[1]; gel of cHexAm(PheAQ)(CH2CH2OCH2CH2OH)2, after 18 days (FIG. 1)", "result": "30-190 nm"},
      {"measurement": "size of larger pyrene crystals", "setting": "[1]; gelator in solution, DMSO/1N HCl, after 1 month (FIG. 2)", "result": 6, "unit": "μm"},
      {"measurement": "size of pyrene crystals", "setting": "[1]; gelator in solution, DMSO/1N HCl, after 7 days (FIG. 2)", "result": "0.2-3 μm"},
      {"measurement": "size of pyrene crystals", "setting": "[1]; reference, only pyrene in DMSO/H2O, after 2 months (FIG. 3)", "result": "2-12 μm"}
    ]},
    {"smiles": "NS(=O)(=O)c1cc(C(=O)O)c(NCc2ccco2)cc1Cl", "note": "[furosemide]", "values": [
      {"measurement": "butterfly-shaped crystals (long axis)", "setting": "[2]; FIG. 5 (a): gel of cHexAm(PheAmBn)(CH2CH2OCH2CH2OH)2, PG/PEG400/water", "result": "~25", "unit": "μm"},
      {"measurement": "butterfly-shaped crystals (long axis)", "setting": "[2]; FIG. 5 (b): gel of cHexAm(PheAmPhOMe)(CH2CH2OCH2CH2OH)2, PG/PEG400/water", "result": "~25", "unit": "μm"},
      {"measurement": "globular crystals", "setting": "[2]; FIG. 5 (c): gel of cHexAmPheOCH2CH2OCH2CH2OH, PG/PEG400/water", "result": "~25", "unit": "μm"},
      {"measurement": "rod-shaped crystals (long axis)", "setting": "[2]; FIG. 5 (d): reference without gelator, PG/PEG400/water", "result": "25-250 μm"}
    ]},
    {"smiles": "C#C[C@]1(O)CC[C@H]2[C@@H]3CCC4=Cc5oncc5C[C@]4(C)[C@H]3CC[C@@]21C", "note": "[danazol]", "values": [
      {"measurement": "average size of danazol particles", "setting": "[3]; freeze-dried powder of gel of cHexAm(PheAQ)(CH2CH2O CH2CH2OH)2, 5:1, DMSO/water 50/950 μL", "result": "14-70 nm"},
      {"measurement": "width of very few rod-shaped danazol particles", "setting": "[3]; freeze-dried powder of gel of cHexAmPheOCH2CH2OCH2CH2OH, 5:1", "result": "500-900 nm"},
      {"measurement": "average size of danazol particles", "setting": "[3]; freeze-dried powder of gel of cHexAmPheOCH2CH2OCH2CH2OH, 5:1, DMSO/water 50/950 μL", "result": 20, "unit": "nm"},
      {"measurement": "length of some rod-shaped danazol particles", "setting": "[3]; [4]", "result": 9, "unit": "μm"},
      {"measurement": "width of some rod-shaped danazol particles", "setting": "[3]; [4]", "result": 0.7, "unit": "μm"},
      {"measurement": "average size of danazol particles", "setting": "[3]; gel of cHexAm(PheAQ)(CH2CH2OCH2CH2OH)2, 1:1 molar, DMSO/water 50/950 μL", "result": "140-700 nm"},
      {"measurement": "average size of danazol particles", "setting": "[3]; [5]", "result": 28, "unit": "nm"},
      {"measurement": "size of very few danazol particles", "setting": "[3]; [5]", "result": 10, "unit": "μm"},
      {"measurement": "average size of danazol particles", "setting": "[3]; [6]", "result": 14, "unit": "nm"},
      {"measurement": "size of some danazol particles", "setting": "[3]; [6]", "result": 400, "unit": "nm"},
      {"measurement": "length of rod-shaped danazol particles", "setting": "[3]; gel of cHexAmMetOH, 2:1 molar, DMSO/water 100/900 μL", "result": "1-10 μm"},
      {"measurement": "length of rod-shaped danazol particles", "setting": "[3]; [7]", "result": "0.6-6 μm"},
      {"measurement": "width of rod-shaped danazol particles", "setting": "[3]; [7]", "result": "0.2-0.6 μm"},
      {"measurement": "average size of danazol particles", "setting": "[3]; [8]", "result": 20, "unit": "nm"},
      {"measurement": "size of some danazol particles", "setting": "[3]; [8]", "result": "approximately 200 nm"},
      {"measurement": "length of rod-shaped danazol particles", "setting": "[3]; [9]", "result": "15-53 μm"},
      {"measurement": "width of rod-shaped danazol particles", "setting": "[3]; [9]", "result": "0.5-10 μm"},
      {"measurement": "amorphous globular particles", "setting": "[2]; FIG. 6 (a): gel of cHexAm(PheAmAQ)(CH2CH2OCH2CH2OH)2, DMSO/water", "result": "< 2", "unit": "μm"},
      {"measurement": "amorphous globular particles", "setting": "[2]; [10]", "result": "< 2", "unit": "μm"},
      {"measurement": "some needle-shaped crystals (long axis)", "setting": "[2]; [10]", "result": "25-50 μm"},
      {"measurement": "rod-shaped crystals", "setting": "[2]; FIG. 6 (c): reference without gelator, DMSO/water", "result": "20-120 μm"}
    ]},
    {"smiles": "O=C(O)[C@@H]1C[C@H](C(=O)O)C[C@H](C(=O)N[C@@H](Cc2ccccc2)C(=O)NCc2ccccc2)C1", "note": "[cHex(AmPheAmBn)(COOH)2]", "values": [
      {"measurement": "Gel test", "setting": "Gel test of gelators", "result": "gel"}
    ]}
  ]
}
